Biological target: T1, Purified ERAP1 (37-941)-10His (ERAP1) (Homo sapiens, UniProt Q9NZ08)
T1 construct: Purified ERAP1 (37-941)-10His (ERAP1)
Test: ERAP1 mediated hydrolysis of an amide substrate (10-mer inhibition assay), biochemical system
Settings: 10-mer substrate, 23° C., 1 h, excitation 279 nm / emission 355 nm; read-out: IC50 vs Decapeptide WRVYEKC(Dnp)ALK-acid (where Dnp is Dinitrophenyl maleimide) (10-mer)
Method: However, as ERAP1 hydrolyses the N-terminal amide bond and tryptophan is released this internal quenching is lost and the reaction is monitored by the increase in tryptophan fluorescence over the course of the assay. For the purposes of this application this assay is referred to as the “10mer inhibition assay” and compound potencies are calculated and expressed as IC50 as would be familiar to a person skilled in the art.
Biological Assay 1: ERAP1 Mediated Hydrolysis of an Amide Substrate Measured in a Biochemical System
Decapeptide WRVYEKC(Dnp)ALK-acid (where Dnp is Dinitrophenyl maleimide) (10-mer) L-Leucine 7-amido-4-methylcoumarin (L-AMC)
12.5 μL ERAP1 enzyme in 1×AB was combined with 250 nL test compound in DMSO. […] For detection, plates were read at excitation 365 nm and emission 442 nm (L-AMC) or excitation 279 nm and emission 355 nm (10-mer).

T1 sequence (Q9NZ08 37-941): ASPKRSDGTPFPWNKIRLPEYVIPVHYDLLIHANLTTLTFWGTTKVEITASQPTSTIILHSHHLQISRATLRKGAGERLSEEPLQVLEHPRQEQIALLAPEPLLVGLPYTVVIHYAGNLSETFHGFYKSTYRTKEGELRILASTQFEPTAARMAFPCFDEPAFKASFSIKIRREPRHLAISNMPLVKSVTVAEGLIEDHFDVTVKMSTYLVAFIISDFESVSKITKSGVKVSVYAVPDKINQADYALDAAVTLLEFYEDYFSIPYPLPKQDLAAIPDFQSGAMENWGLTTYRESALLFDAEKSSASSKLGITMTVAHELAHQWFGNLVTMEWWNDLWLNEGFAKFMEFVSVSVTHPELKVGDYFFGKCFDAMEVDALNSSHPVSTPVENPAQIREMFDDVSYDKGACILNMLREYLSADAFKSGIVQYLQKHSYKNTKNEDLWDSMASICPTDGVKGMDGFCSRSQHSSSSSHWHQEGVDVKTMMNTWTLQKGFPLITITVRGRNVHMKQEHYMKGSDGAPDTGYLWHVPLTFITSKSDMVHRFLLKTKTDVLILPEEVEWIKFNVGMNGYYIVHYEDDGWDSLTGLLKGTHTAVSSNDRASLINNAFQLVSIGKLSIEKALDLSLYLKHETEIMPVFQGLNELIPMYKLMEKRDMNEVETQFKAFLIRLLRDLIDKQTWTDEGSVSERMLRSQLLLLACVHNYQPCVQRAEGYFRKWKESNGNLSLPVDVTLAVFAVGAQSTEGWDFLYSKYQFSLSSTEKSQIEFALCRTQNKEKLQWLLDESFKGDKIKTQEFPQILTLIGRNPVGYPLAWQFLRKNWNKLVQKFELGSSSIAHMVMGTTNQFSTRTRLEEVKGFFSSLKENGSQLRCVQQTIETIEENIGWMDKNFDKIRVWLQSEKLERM

Row | SMILES | IC50
1 | O=C(O)c1cc(S(=O)(=O)Nc2cc(C(F)(F)F)ccc2N2CCCCC2)ccc1Cl [Example 83, 2-chloro-5-(N-(2-(piperidin-1-yl)-5-(trifluoromethyl)phenyl)sulfamoyl)benzoic acid] | < 5000 nM
2 | COc1ccc(C(=O)O)cc1S(=O)(=O)Nc1cc(C(F)(F)F)ccc1N1CCC(C)CC1 [Example 84, 4-methoxy-3-(N-(2-(4-methylpiperidin-1-yl)-5-(trifluoromethyl)phenyl)sulfamoyl)benzoic acid] | < 5000 nM
3 | O=C(O)c1ccc(Cl)c(S(=O)(=O)Nc2cc(C(F)(F)F)ccc2N2CCCCCC2)c1 [Example 86, 3-(N-(2-(azepan-1-yl)-5-(trifluoromethyl)phenyl)sulfamoyl)-4-chlorobenzoic acid] | < 500 nM
4 | O=C(O)c1ccc(O)c(S(=O)(=O)Nc2cc(C(F)(F)F)ccc2N2CCCCC2)c1 [Example 161, 4-hydroxy-3-(N-(2-(piperidin-1-yl)-5-(trifluoromethyl)phenyl)sulfamoyl)benzoic acid] | < 500 nM
5 | COc1ccc(-c2nn[nH]n2)cc1S(=O)(=O)Nc1cc(C(F)(F)F)ccc1N1CCCCC1 [Example 171, 2-methoxy-N-(2-(piperidin-1-yl)-5-(trifluoromethyl)phenyl)-5-(tetrazol-5-yl)benzenesulfonamide] | < 5000 nM
6 | COc1ccc(C(=O)O)cc1S(=O)(=O)Nc1cc(C(F)(F)F)ccc1N1CCCC(O)C1 (centres unmarked) [Example 177, 3-(N-(2-(3-hydroxypiperidin-1-yl)-5-(trifluoromethyl)phenyl)sulfamoyl)-4-methoxybenzoic acid] | < 500 nM
7 | COc1ccc(C(=O)O)cc1S(=O)(=O)Nc1cc(C(F)(F)F)ccc1N1CC[C@H](O)C1 [Example 178, (S)-3-(N-(2-(3-hydroxypyrrolidin-1-yl)-5-(trifluoromethyl)phenyl)sulfamoyl)-4-methoxybenzoic acid] | < 5000 nM
8 | COc1ccc(C(=O)O)cc1S(=O)(=O)Nc1cc(C(F)(F)F)ccc1N1CCCC(OC)C1 (centres unmarked) [Example 179, 4-methoxy-3-(N-(2-(3-methoxypiperidin-1-yl)-5-(trifluoromethyl)phenyl)sulfamoyl)benzoic acid] | < 500 nM
9 | CCOC1CCN(c2ccc(C(F)(F)F)cc2NS(=O)(=O)c2cc(C(=O)O)ccc2OC)CC1 [Example 180, 3-(N-(2-(4-ethoxypiperidin-1-yl)-5-(trifluoromethyl)phenyl)sulfamoyl)-4-methoxybenzoic acid] | < 500 nM
10 | COc1ccc(C(=O)O)cc1S(=O)(=O)Nc1cc(C(F)(F)F)ccc1N1CCC(OC)CC1 [Example 181, 4-methoxy-3-(N-(2-(4-methoxypiperidin-1-yl)-5-(trifluoromethyl)phenyl)sulfamoyl)benzoic acid] | < 500 nM
11 | COc1ccc(C(=O)O)cc1S(=O)(=O)Nc1cc(C#N)ccc1N1CCCCC1 [Example 182, 3-(N-(5-cyano-2-(piperidin-1-yl)phenyl)sulfamoyl)-4-methoxybenzoic acid] | < 500 nM
12 | CCc1ccc(C(=O)O)cc1S(=O)(=O)Nc1cc(C(F)(F)F)ccc1N1CC(O)C1 [Example 183, 4-ethyl-3-(N-(2-(3-hydroxyazetidin-1-yl)-5-(trifluoromethyl)phenyl)sulfamoyl)benzoic acid] | > 5000 nM
13 | COc1ccc(C(=O)O)cc1S(=O)(=O)Nc1cc(C(F)(F)F)cc(F)c1N1CCCCC1 [Example 184, 3-(N-(3-fluoro-2-(piperidin-1-yl)-5-(trifluoromethyl)phenyl)sulfamoyl)-4-methoxybenzoic acid] | < 500 nM
14 | COc1ccc(C(=O)O)cc1S(=O)(=O)Nc1cc(C(F)(F)F)ccc1N1CCC(O)(C2CC2)CC1 [Example 185, 3-(N-(2-(4-cyclopropyl-4-hydroxypiperidin-1-yl)-5-(trifluoromethyl)phenyl)sulfamoyl)-4-methoxybenzoic acid] | < 500 nM
15 | COc1ccc(C(=O)O)cc1S(=O)(=O)Nc1cc(C(F)(F)F)ccc1N1CCC2(CCO2)CC1 [Example 186, 3-(N-(2-(1-oxa-7-azaspiro[3.5]nonan-7-yl)-5-(trifluoromethyl)phenyl)sulfamoyl)-4-methoxybenzoic acid] | < 500 nM
16 | COc1ccc(C(=O)O)cc1S(=O)(=O)Nc1cc(C(F)(F)F)ccc1N1CCC(OC(C)C)CC1 [Example 187, 3-(N-(2-(4-isopropoxypiperidin-1-yl)-5-(trifluoromethyl)phenyl)sulfamoyl)-4-methoxybenzoic acid] | < 5000 nM
17 | COc1ccc(C(=O)O)cc1S(=O)(=O)Nc1cc(C(F)(F)F)ccc1N1CC[C@@H](O)C1 [Example 188, (R)-3-(N-(2-(3-hydroxypyrrolidin-1-yl)-5-(trifluoromethyl)phenyl)sulfamoyl)-4-methoxybenzoic acid] | < 5000 nM
18 | CCC1(O)CN(c2ccc(C(F)(F)F)cc2NS(=O)(=O)c2cc(C(=O)O)ccc2OC)C1 [Example 189, 3-(N-(2-(3-ethyl-3-hydroxyazetidin-1-yl)-5-(trifluoromethyl)phenyl)sulfamoyl)-4-methoxybenzoic acid] | > 5000 nM
19 | O=C(O)c1ccc(C(F)(F)F)c(S(=O)(=O)Nc2cc(C(F)(F)F)ccc2N2CCCCC2)c1 [Example 200, 3-(N-(2-(piperidin-1-yl)-5-(trifluoromethyl)phenyl)sulfamoyl)-4-(trifluoromethyl)benzoic acid] | < 5000 nM
20 | CCOc1ccc(C(=O)O)cc1S(=O)(=O)Nc1cc(C(F)(F)F)ccc1N1CCCCC1 [Example 201, 4-ethoxy-3-(N-(2-(piperidin-1-yl)-5-(trifluoromethyl)phenyl)sulfamoyl)benzoic acid] | < 500 nM
21 | COc1ccc(C(=O)O)cc1S(=O)(=O)Nc1cc(Cl)c(Cl)cc1N1CCCCC1 [Example 202, 3-(N-(4,5-dichloro-2-(piperidin-1-yl)phenyl)sulfamoyl)-4-methoxybenzoic acid] | < 500 nM
22 | CCc1ccc(C(=O)O)cc1S(=O)(=O)Nc1cc(C(F)(F)F)ccc1N1CCC(F)(F)CC1 [Example 203, 3-(N-(2-(4,4-difluoropiperidin-1-yl)-5-(trifluoromethyl)phenyl)sulfamoyl)-4-ethylbenzoic acid] | < 500 nM

Continued, values first:

Row | IC50 | SMILES
23 | < 500 nM | CCc1ccc(C(=O)O)cc1S(=O)(=O)Nc1cc(C(F)(F)F)ccc1N1CCCC(F)(F)C1 [Example 204, 3-(N-(2-(3,3-difluoropiperidin-1-yl)-5-(trifluoromethyl)phenyl)sulfamoyl)-4-ethylbenzoic acid]
24 | < 500 nM | CCc1ccc(C(=O)O)cc1S(=O)(=O)Nc1cc(C(F)(F)F)ccc1N1CCC(F)CC1 [Example 205, 4-ethyl-3-(N-(2-(4-fluoropiperidin-1-yl)-5-(trifluoromethyl)phenyl)sulfamoyl)benzoic acid]
25 | < 500 nM | COc1ccc(C(=O)O)cc1S(=O)(=O)Nc1cc(C(F)(F)F)ccc1N1CCC(F)CC1 [Example 206, 3-(N-(2-(4-fluoropiperidin-1-yl)-5-(trifluoromethyl)phenyl)sulfamoyl)-4-methoxybenzoic acid]
26 | < 500 nM | COc1ccc(C(=O)O)cc1S(=O)(=O)Nc1cc(S(C)(=O)=O)ccc1N1CCCCC1 [Example 207, 4-methoxy-3-(N-(5-(methylsulfonyl)-2-(piperidin-1-yl)phenyl)sulfamoyl)benzoic acid]
27 | < 500 nM | COc1ccc(C(=O)O)cc1S(=O)(=O)Nc1cc(C(F)(F)F)ccc1N1CCC[C@@H](F)C1 [Example 208, I-3-(N-(2-(3-fluoropiperidin-1-yl)-5-(trifluoromethyl)phenyl)sulfamoyl)-4-methoxybenzoic acid]
28 | < 500 nM | COc1ccc(C(=O)O)cc1S(=O)(=O)Nc1cc(C(F)(F)F)ccc1N1CCC[C@H](F)C1 [Example 209, (S)-3-(N-(2-(3-fluoropiperidin-1-yl)-5-(trifluoromethyl)phenyl)sulfamoyl)-4-methoxybenzoic acid]
29 | < 500 nM | CCc1ccc(C(=O)O)cc1S(=O)(=O)Nc1cc(C(F)(F)F)ccc1N1CCC[C@H](F)C1 [Example 210, (S)-4-ethyl-3-(N-(2-(3-fluoropiperidin-1-yl)-5-(trifluoromethyl)phenyl)sulfamoyl)benzoic acid]
30 | < 500 nM | CCc1ccc(C(=O)O)cc1S(=O)(=O)Nc1cc(C(F)(F)F)ccc1N1CCC[C@@H](F)C1 [Example 211, I-4-ethyl-3-(N-(2-(3-fluoropiperidin-1-yl)-5-(trifluoromethyl)phenyl)sulfamoyl)benzoic acid]
31 | < 500 nM | COc1ccc(C(=O)O)cc1S(=O)(=O)Nc1cc(C(F)F)ccc1N1CCCCC1 [Example 212, 3-(N-(5-(difluoromethyl)-2-(piperidin-1-yl)phenyl)sulfamoyl)-4-methoxybenzoic acid]
32 | < 500 nM | CCc1ccc(C(=O)O)cc1S(=O)(=O)Nc1cc(C(F)F)ccc1N1CCCCC1 [Example 213, 3-(N-(5-(difluoromethyl)-2-(piperidin-1-yl)phenyl)sulfamoyl)-4-ethylbenzoic acid]
33 | < 500 nM | COc1ccc(C(=O)O)cc1S(=O)(=O)Nc1cc(-n2cnnn2)ccc1N1CCCCC1 [Example 214, 4-methoxy-3-(N-(2-(piperidin-1-yl)-5-(1H-tetrazol-1-yl)phenyl)sulfamoyl)benzoic acid]
34 | < 500 nM | CCc1ccc(C(=O)O)cc1S(=O)(=O)Nc1cc(C#N)ccc1N1CCCCC1 [Example 215, 3-(N-(5-cyano-2-(piperidin-1-yl)phenyl)sulfamoyl)-4-ethylbenzoic acid]
35 | < 500 nM | CCc1ccc(C(=O)O)cc1S(=O)(=O)Nc1cc(Cl)ccc1N1CCCCC1 [Example 216, 3-(N-(5-chloro-2-(piperidin-1-yl)phenyl)sulfamoyl)-4-ethylbenzoic acid]

Reference: patent publication US12485169B2, “Compounds” (GREY WOLF THERAPEUTICS LIMITED, priority 2018, dated 2025)
